IC50 and Activity data for 11 molecules are collected here from ChEMBL document CHEMBL1141477, “Synthesis and anticancer activity studies of cyclopamine derivatives” (Bioorg Med Chem Lett, 2008).

Each structure is given as a SMILES string. Activity calls are given as the source filed them. The calls are words filed in the database; no cut-off is given here.

The subject of the first experiment is A549. Kind of experiment: Anticancer activity against human A549 cells by MTS assay. In kind it is functional, cell-based.
Molecule `CC1=C2C[C@H]3[C@@H](CC=C4C[C@@H](O)CC[C@@]43C)[C@@H]2CC[C@]12O[C@@H]1C[C@H](C)CN[C@H]1[C@H]2C` [CYCLOPAMINE] returned an IC50 of 49 µM.

For `CC(=O)OC[C@H]1O[C@@H](n2cc(CN3C[C@@H](C)C[C@H]4O[C@]5(CC[C@@H]6C(=C5C)C[C@H]5[C@H]6CC=C6C[C@@H](O)CC[C@@]65C)[C@H](C)[C@@H]43)nn2)[C@H](OC(C)=O)[C@@H](OC(C)=O)[C@@H]1OC(C)=O`, the IC50 worked out at 144 µM.

As for `CC(=O)O[C@@H]1[C@@H](OC(C)=O)[C@@H](OC(C)=O)C(n2cc(CN3C[C@@H](C)C[C@H]4O[C@]5(CC[C@@H]6C(=C5C)C[C@H]5[C@H]6CC=C6C[C@@H](O)CC[C@@]65C)[C@H](C)[C@@H]43)nn2)O[C@H]1C` (stereo partly specified), the IC50 came to 33 µM.

In turn, `CC(=O)OC[C@H]1O[C@@H](O[C@H]2[C@H](OC(C)=O)[C@@H](OC(C)=O)[C@H](n3cc(CN4C[C@@H](C)C[C@H]5O[C@]6(CC[C@@H]7C(=C6C)C[C@H]6[C@H]7CC=C7C[C@@H](O)CC[C@@]76C)[C@H](C)[C@@H]54)nn3)O[C@@H]2COC(C)=O)[C@H](OC(C)=O)[C@@H](OC(C)=O)[C@H]1OC(C)=O` yielded an IC50 of 183 µM.

`CC(=O)OC[C@H]1O[C@@H](n2cc(CN3C[C@@H](C)C[C@H]4O[C@]5(CC[C@@H]6C(=C5C)C[C@H]5[C@H]6CC=C6C[C@@H](O)CC[C@@]65C)[C@H](C)[C@@H]43)nn2)[C@H](OC(C)=O)[C@@H](OC(C)=O)[C@@H]1O[C@@H]1O[C@H](COC(C)=O)[C@@H](O[C@@H]2O[C@H](COC(C)=O)[C@@H](OC(C)=O)[C@H](OC(C)=O)[C@H]2OC(C)=O)[C@H](OC(C)=O)[C@H]1OC(C)=O` displayed a concentration for half-maximal inhibition (IC50) of 96 µM. This IC50 lies about 1.9-fold lower than the previous one.

Another experiment has as its system A549. Description: Anticancer activity against human A549 cells at 200 uM by MTS assay. In kind it is functional, cell-based.
For the molecule `CC(=O)N[C@@H]1[C@@H](OC(C)=O)[C@H](OC(C)=O)[C@@H](COC(C)=O)O[C@H]1n1cc(CN2C[C@@H](C)C[C@H]3O[C@]4(CC[C@@H]5C(=C4C)C[C@H]4[C@H]5CC=C5C[C@@H](O)CC[C@@]54C)[C@H](C)[C@@H]32)nn1`, the result was inactive.

Turning to `CC(=O)OC[C@H]1OC(n2cc(CN3C[C@@H](C)C[C@H]4O[C@]5(CC[C@@H]6C(=C5C)C[C@H]5[C@H]6CC=C6C[C@@H](O)CC[C@@]65C)[C@H](C)[C@@H]43)nn2)[C@@H](OC(C)=O)[C@@H](OC(C)=O)[C@@H]1OC(C)=O` (stereo partly specified), the outcome was inactive.

As to `CC(=O)OC[C@H]1O[C@@H](n2cc(CN3C[C@@H](C)C[C@H]4O[C@]5(CC[C@@H]6C(=C5C)C[C@H]5[C@H]6CC=C6C[C@@H](O)CC[C@@]65C)[C@H](C)[C@@H]43)nn2)[C@H](OC(C)=O)[C@@H](OC(C)=O)[C@@H]1O[C@@H]1O[C@H](COC(C)=O)[C@@H](OC(C)=O)[C@H](OC(C)=O)[C@H]1OC(C)=O`, the outcome was inactive.

Regarding `CC(=O)O[C@@H]1[C@@H](OC(C)=O)[C@@H](n2cc(CN3C[C@@H](C)C[C@H]4O[C@]5(CC[C@@H]6C(=C5C)C[C@H]5[C@H]6CC=C6C[C@@H](O)CC[C@@]65C)[C@H](C)[C@@H]43)nn2)OC[C@H]1OC(C)=O`, the result was inactive.

As to `CC(=O)OC[C@H]1O[C@@H](n2cc(CN3C[C@@H](C)C[C@H]4O[C@]5(CC[C@@H]6C(=C5C)C[C@H]5[C@H]6CC=C6C[C@@H](O)CC[C@@]65C)[C@H](C)[C@@H]43)nn2)[C@H](OC(C)=O)[C@@H](OC(C)=O)[C@H]1OC(C)=O`, the result was inactive.

In the case of `CC(=O)N[C@@H]1[C@@H](OC(C)=O)[C@@H](OC(C)=O)[C@@H](COC(C)=O)O[C@H]1n1cc(CN2C[C@@H](C)C[C@H]3O[C@]4(CC[C@@H]5C(=C4C)C[C@H]4[C@H]5CC=C5C[C@@H](O)CC[C@@]54C)[C@H](C)[C@@H]32)nn1`, the outcome was inactive.
